From ChEMBL document CHEMBL1133485, “3alpha-(4-Substituted phenyl)nortropane-2beta-carboxylic acid methyl esters show selective binding at the norepinephrine transporter” (Bioorg Med Chem Lett, 2000)

Key:
[1] = molecular target: T1, Sodium-dependent serotonin transporter (Rattus norvegicus, UniProt P31652)
[2] = molecular target: T2, Norepinephrine transporter (Rattus norvegicus, UniProt Q9WTR4); experiment: Inhibition of 0.5 nM [3H]nisoxetine binding to Norepinephrine transporter
[3] = molecular target: T2, Norepinephrine transporter; experiment: Inhibition of 0.5 nM [3H]nisoxetine binding toNorepinephrine transporter
[4] = molecular target: Sodium-dependent dopamine transporter (Rattus norvegicus, UniProt P23977); experiment: Displacement of 0.5 nM [3H]WIN-35248 from Dopamine transporter
Sequence of Sodium-dependent dopamine transporter (P23977 whole entry): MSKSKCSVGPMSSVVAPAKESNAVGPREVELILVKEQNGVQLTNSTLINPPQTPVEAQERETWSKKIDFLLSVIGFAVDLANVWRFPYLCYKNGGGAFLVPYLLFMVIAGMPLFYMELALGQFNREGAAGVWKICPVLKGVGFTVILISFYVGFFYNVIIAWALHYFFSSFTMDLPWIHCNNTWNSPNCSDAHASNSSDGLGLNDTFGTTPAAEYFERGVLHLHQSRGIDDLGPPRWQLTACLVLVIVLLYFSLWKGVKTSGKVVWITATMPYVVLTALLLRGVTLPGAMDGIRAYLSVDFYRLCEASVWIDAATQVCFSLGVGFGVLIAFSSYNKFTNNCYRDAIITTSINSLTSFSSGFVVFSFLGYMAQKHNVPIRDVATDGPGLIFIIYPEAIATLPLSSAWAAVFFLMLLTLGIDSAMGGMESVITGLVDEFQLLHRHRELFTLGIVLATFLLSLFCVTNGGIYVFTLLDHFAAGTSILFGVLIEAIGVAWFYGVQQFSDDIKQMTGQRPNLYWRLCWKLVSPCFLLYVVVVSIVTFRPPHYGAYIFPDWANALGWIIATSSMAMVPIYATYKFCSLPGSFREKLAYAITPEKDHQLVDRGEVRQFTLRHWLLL

[5] = molecular target: T1, Sodium-dependent serotonin transporter; experiment: Inhibition of 0.2 nM [3H]paroxetine binding to Serotonin transporter

T1 sequence (P31652 whole entry): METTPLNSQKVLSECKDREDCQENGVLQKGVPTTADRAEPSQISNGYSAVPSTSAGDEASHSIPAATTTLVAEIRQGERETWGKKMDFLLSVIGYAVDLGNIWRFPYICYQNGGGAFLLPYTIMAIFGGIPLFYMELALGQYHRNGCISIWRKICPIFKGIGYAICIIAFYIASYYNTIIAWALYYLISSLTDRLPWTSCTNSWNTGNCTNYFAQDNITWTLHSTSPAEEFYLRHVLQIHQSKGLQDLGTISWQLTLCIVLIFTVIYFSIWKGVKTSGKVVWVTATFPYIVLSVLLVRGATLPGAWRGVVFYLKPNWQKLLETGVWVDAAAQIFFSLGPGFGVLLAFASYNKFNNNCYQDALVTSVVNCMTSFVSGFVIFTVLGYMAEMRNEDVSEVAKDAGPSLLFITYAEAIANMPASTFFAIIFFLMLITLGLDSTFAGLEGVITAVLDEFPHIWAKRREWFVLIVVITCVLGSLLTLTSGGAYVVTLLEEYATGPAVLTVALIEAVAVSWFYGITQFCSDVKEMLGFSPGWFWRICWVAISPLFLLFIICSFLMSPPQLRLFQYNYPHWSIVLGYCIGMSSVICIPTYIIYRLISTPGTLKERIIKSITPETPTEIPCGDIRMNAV
T2 sequence (Q9WTR4 whole entry): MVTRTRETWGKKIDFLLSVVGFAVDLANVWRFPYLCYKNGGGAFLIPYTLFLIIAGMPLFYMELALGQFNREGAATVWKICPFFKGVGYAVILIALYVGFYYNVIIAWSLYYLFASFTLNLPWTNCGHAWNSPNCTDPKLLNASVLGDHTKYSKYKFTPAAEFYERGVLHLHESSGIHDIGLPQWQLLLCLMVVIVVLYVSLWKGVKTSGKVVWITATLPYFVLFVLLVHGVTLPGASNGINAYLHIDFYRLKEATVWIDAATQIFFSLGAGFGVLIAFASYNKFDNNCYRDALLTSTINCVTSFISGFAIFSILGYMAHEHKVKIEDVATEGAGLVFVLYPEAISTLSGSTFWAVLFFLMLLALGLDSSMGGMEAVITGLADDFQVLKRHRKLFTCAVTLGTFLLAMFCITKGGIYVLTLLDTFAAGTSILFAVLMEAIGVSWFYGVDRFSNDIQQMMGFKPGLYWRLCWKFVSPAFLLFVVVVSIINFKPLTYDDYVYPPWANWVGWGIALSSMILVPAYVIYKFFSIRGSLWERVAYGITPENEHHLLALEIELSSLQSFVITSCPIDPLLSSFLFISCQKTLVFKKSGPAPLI

Row | Structure (SMILES) | Ki [1] | Ki [2] | IC50 [3] | IC50 [4] | IC50 [5]
1 | COC(=O)C1C(c2ccc(Cl)cc2)CC2CCC1N2C (stereo in doubt; 5b) | 91 nM |  |  |  | 
2 | COC(=O)C1C2CCC(CC1c1ccc(Cl)cc1)N2 (stereo in doubt; 7b) | 0.38 nM | 3.28 nM | 5.45 nM |  | 
3 | COC(=O)C1C2CCC(CC1c1ccc(Cl)cc1)N2 (stereo in doubt; 4b) | 4.8 nM | 3.1 nM | 5.14 nM | 3.1 nM | 53 nM
4 | COC(=O)C1C2CCC(CC1c1ccc(F)cc1)N2 (stereo in doubt; 4a) | 8.4 nM | 5.9 nM | 9.8 nM | 32.6 nM | 92.4 nM
5 | COC(=O)C1C(c2ccc(Cl)cc2)CC2CCC1N2C (stereo in doubt; 6b) | 4 nM |  |  |  | 
6 | COC(=O)[C@H]1[C@@H](c2ccc(F)cc2)C[C@H]2CC[C@H]1N2C (stereo in doubt; 5a) | 460 nM | 741 nM |  |  | 
7 | COC(=O)C1C2CCC(CC1c1ccc(C)cc1)N2 (stereo in doubt; 7c) | 12 nM | 4.4 nM | 7.2 nM | 0.84 nM | 135 nM
8 | COC(=O)C1C2CCC(CC1c1ccc(C)cc1)N2 (stereo in doubt; 4c) | 46 nM | 5.2 nM | 9 nM | 33.6 nM | 500 nM
9 | COC(=O)[C@H]1[C@@H](c2ccc(F)cc2)C[C@H]2CC[C@H]1N2C (stereo in doubt; 6a) | 69 nM | 503 nM |  |  | 
10 | COC(=O)C1C(c2ccc(C)cc2)CC2CCC1N2C (stereo in doubt; 6c) |  | 36 nM |  |  | 
11 | COC(=O)C1C2CCC(CC1c1ccc(F)cc1)N2 (stereo in doubt; 7a) | 6.24 nM | 11.3 nM | 18.8 nM | 4.4 nM | 
12 | COC(=O)C1C(c2ccc(C)cc2)CC2CCC1N2C (stereo in doubt; 5c) |  | 160 nM | 270 nM |  | 
